This passage reports IC50 results from USRE46856E1, “Substituted 2,3-dihydroimidazo[1,2-c]quinazoline derivatives useful for treating hyper-proliferative disorders and diseases associated with angiogenesis” (Bayer Intellectual Property GmbH, priority 2006, dated 2018).

SMILES strings stand for the structures. Structures can show the parent of a compound that is named as a salt.

In this assay the test system is IGF-1 induced AKT phosphorylation in A549 cells. Nature of the assay: IGF-1 induced AKT phosphorylation assay (A549 cell assay). The following applies: Homo sapiens; A549 cells, 25 ng/ml IGF-1, phospho-AKT(Ser 473); read-out: average IC50 in the A549 cell assay. Type of assay: cell-based. An excerpt: [Determination of IC50 Values of Compounds in Cell Based Assays of PI3K Activity] 96-well collagen treated clear bottom/black sided Costar plates were purchased from CORNING LIFE SCIENCES (Corning, N.Y.; at.#3904). Gibco RPMI medium (Cat.#11875), Biosource anti-phospho-AKT([…]) antibody (Cat.#44-621G) and recombinant IGF-1 (Cat.#PHG0074) were purchased from INVITROGEN (Carlsbad, Calif.). The secondary donkey anti-rabbit IgG horse radish peroxidase conjugate (Cat. #N[…]) and ECL chemiluminesence reagent (Cat.#RPN2209) were purchased from […] (Buckinghamshire, UK). Cell culture tested bovine serum albumin solution (35% in DPBS; Cat.#A7979) and all other chemicals were purchased from SIGMA (St. Louis, Mo.). The Wallac Victor2 1420 Multilabel HTS Counter was purchased from […] (Wellesley, Mass.) […] All wells (except no IGF-1 controls) were then treated with 25 ng/ml IGF-1 for 10 minutes at 37° C. in a 5% CO2 incubator. Following removal of the supernatants and washing with the wells with TBS (50 mM Tris pH 8.0 containing 138 mM NaCL and 27 mM KCl), 200 µL of 3.7% formaldehyde in TBS was added to each well, and the plate was incubated at 4° C. for 10 minutes. Supernatants were once again removed and replaced with 50 μL Methanol (-20° C.) and the plate incubated at 4° C. for 5 minutes. 200 μL of 0.1% BSA in TBS was then added to each well and the plate incubated at room temperature for 1⁄2 hour. Supernatants were removed and 50 μL of a solution comprising the primary anti-phospho-AKT([…]) antibody diluted 1:250 in TBS containing 0.1% BSA was added to each well (except control/background wells). The plate was then incubated for 11⁄2 hour at room temperature. Supernatants were removed, each well was washed 3 times with 200 μL TBS, and 100 μL of a solution containing the secondary donkey anti-rabbit IgG antibody HRP-conjugate diluted 1:100 in TBS-T (TBS containing 0.1% triton). Plates were then incubated for 1 hour at room temperature. After removing the secondary antibody, each well was washed 6 times with cold TBS-T, 100 μL of ECL was added to each well, and the plate was placed on an orbital shaker for 1 minute. The plates were then read on a Wallac Victor2 1420 Multilabel HTS Counter using the luminometry window (maximum light detection is measured at […]). IC50 values were determined from the inhibition curve.
For orientation: IC50 means the point on the concentration scale where inhibition reaches its midpoint. For the molecule `COc1c(OCCCN(C)C)ccc2c1N=C(NC(=O)c1ccc(N)nc1)N1CCN=C21` [Example 46, 6-amino-N-{8-[3-(dimethylamino)propoxy]-7-methoxy-2,3-dihydroimidazo[1,2-c]quinazolin-5-yl}nicotinamide], the concentration for half-maximal inhibition (IC50) is under 100 nM. To `COc1c(OCCCN2CCOCC2)ccc2c1N=C(NC(=O)c1ccc(N3CC[C@H](N)C3)nc1)N1CCN=C21` [Example 51, 6-[(3S)-3-aminopyrrolidin-1-yl]-N-[7-methoxy-8-(3-morpholin-4-ylpropoxy)-2,3-dihydroimidazo[1,2-c]quinazolin-5-yl]nicotinamide hydrochloride hydrate] belongs 100 to 1000 nM. To `COc1c(OCCCN2CCOCC2)ccc2c1N=C(NC(=O)c1ccc(N3CC[C@@H](N)C3)nc1)N1CCN=C21` [Example 52, 6-[(3R)-3-aminopyrrolidin-1-yl]-N-[7-methoxy-8-(3-morpholin-4-ylpropoxy)-2,3-dihydroimidazo[1,2-c]quinazolin-5-yl]nicotinamide hydrochloride] belongs under 100 nM; to `COc1c(OCCCN2CCOCC2)ccc2c1N=C(NC(=O)c1ccc(NCc3ccco3)nc1)N1CCN=C21` [Example 54, 6-[(2-furylmethyl)amino]-N-[7-methoxy-8-(3-morpholin-4-ylpropoxy)-2,3-dihydroimidazo[1,2-c]quinazolin-5-yl]nicotinamide], 100 to 1000 nM; to `COCCNc1ccc(C(=O)NC2=Nc3c(ccc(OCCCN4CCOCC4)c3OC)C3=NCCN23)cn1` [Example 55, 6-[(2-methoxyethyl)amino]-N-[7-methoxy-8-(3-morpholin-4-ylpropoxy)-2,3-dihydroimidazo[1,2-c]quinazolin-5-yl]nicotinamide], 100 to 1000 nM. To `CNCCCOc1ccc2c(c1OC)N=C(NC(=O)c1cccnc1)N1CCN=C21` [Example 58, N-{7-methoxy-8-[3-(methylamino)propoxy]-2,3-dihydroimidazo[1,2-c]quinazolin-5-yl}nicotinamide] belongs 100 to 1000 nM. As for `COc1c(OCCCN2CCOCC2)ccc2c1N=C(NC(=O)c1ccc(NC(=O)C3CC3)nc1)N1CCN=C21` [Example 60, 6-[(cyclopropylcarbonyl)amino]-N-[7-methoxy-8-(3-morpholin-4-ylpropoxy)-2,3-dihydroimidazo[1,2-c]quinazolin-5-yl]nicotinamide], the IC50 was under 100 nM. Next, `COc1c(OCCCN2CCOCC2)ccc2c1N=C(NC(=O)c1ccc(NC(=O)C(C)C)nc1)N1CCN=C21` [Example 63, 6-(isobutyrylamino)-N-[7-methoxy-8-(3-morpholin-4-ylpropoxy)-2,3-dihydroimidazo[1,2-c]quinazolin-5-yl]nicotinamide]: under 100 nM; `COc1c(OCCCN2CCN(C)CC2)ccc2c1N=C(NC(=O)c1cccnc1)N1CCN=C21` [Example 64, N-{7-methoxy-8-[3-(4-methylpiperazin-1-yl)propoxy]-2,3-dihydroimidazo[1,2-c]quinazolin-5-yl}nicotinamide]: 100 to 1000 nM; `CNC(=O)Nc1nc(C(=O)NC2=Nc3c(ccc(OCCCN4CCOCC4)c3OC)C3=NCCN23)cs1` [Example 65, N-[7-methoxy-8-(3-morpholin-4-ylpropoxy)-2,3-dihydroimidazo[1,2-c]quinazolin-5-yl]-2-{[(methylamino)carbonyl]amino}-1,3-thiazole-4-carboxamide]: over 1000 nM. Next, `CNC(=O)Nc1ccc(C(=O)NC2=Nc3c(ccc(OCCCN4CCOCC4)c3OC)C3=NCCN23)cn1` [Example 66, N-[7-methoxy-8-(3-morpholin-4-ylpropoxy)-2,3-dihydroimidazo[1,2-c]quinazolin-5-yl]-6-{[(methylamino)carbonyl]amino}nicotinamide]: under 100 nM; `CNc1nc(C(=O)NC2=Nc3c(ccc(OCCCN4CCOCC4)c3OC)C3=NCCN23)cs1` [Example 67, N-[7-methoxy-8-(3-morpholin-4-ylpropoxy)-2,3-dihydroimidazo[1,2-c]quinazolin-5-yl]-2-(methylamino)-1,3-thiazole-4-carboxamide]: 100 to 1000 nM. Next, `COc1c(OCCN2CCOCC2)ccc2c1N=C(NC(=O)c1cccnc1)N1CCN=C21` [Example 68, N-[7-methoxy-8-(2-morpholin-4-ylethoxy)-2,3-dihydroimidazo[1,2-c]quinazolin-5-yl]nicotinamide]: under 100 nM; `COc1c(OCCN(C)C)ccc2c1N=C(NC(=O)c1sc(C)nc1C)N1CCN=C21` [Example 69, N-{8-[2-(dimethylamino)ethoxy]-7-methoxy-2,3-dihydroimidazo[1,2-c]quinazolin-5-yl}-2,4-dimethyl-1,3-thiazole-5-carboxamide]: under 100 nM. `COc1c(OCCN(C)C)ccc2c1N=C(NC(=O)c1ccc(C)nc1)N1CCN=C21` [Example 70, N-{8-[2-(dimethylamino)ethoxy]-7-methoxy-2,3-dihydroimidazo[1,2-c]quinazolin-5-yl}-6-methylnicotinamide]: the IC50 was under 100 nM. Next, `COc1c(OCCCN2CCOCC2)ccc2c1N=C(NC(=O)c1ccc(NC(=O)NC(C)C)nc1)N1CCN=C21` [Example 71, 6-{[(isopropylamino)carbonyl]amino}-N-[7-methoxy-8-(3-morpholin-4-ylpropoxy)-2,3-dihydroimidazo[1,2-c]quinazolin-5-yl]nicotinamide]: under 100 nM. Next, `COc1c(OCCCN2CCOCC2)ccc2c1N=C(NC(=O)c1ccc(N3CCCC3)nc1)N1CCN=C21` [Example 72, N-[7-methoxy-8-(3-morpholin-4-ylpropoxy)-2,3-dihydroimidazo[1,2-c]quinazolin-5-yl]-6-pyrrolidin-1-ylnicotinamide]: 100 to 1000 nM; `COc1c(OCCCN2CCOCC2)ccc2c1N=C(NC(=O)c1ccc(N(C)C)nc1)N1CCN=C21` [Example 73, 6-(dimethylamino)-N-[7-methoxy-8-(3-morpholin-4-ylpropoxy)-2,3-dihydroimidazo[1,2-c]quinazolin-5-yl]nicotinamide]: 100 to 1000 nM. As for `COc1c(OCCCN2CCCCC2)ccc2c1N=C(NC(=O)c1cccnc1)N1CCN=C21` [Example 74, N-[7-methoxy-8-(3-piperidin-1-ylpropoxy)-2,3-dihydroimidazo[1,2-c]quinazolin-5-yl]nicotinamide], the IC50 was under 100 nM. To `COc1c(OCCN2CCCC2)ccc2c1N=C(NC(=O)c1cccnc1)N1CCN=C21` [Example 75, N-[7-methoxy-8-(2-pyrrolidin-1-ylethoxy)-2,3-dihydroimidazo[1,2-c]quinazolin-5-yl]nicotinamide] belongs under 100 nM; to `COc1c(OCCN2CCCCC2)ccc2c1N=C(NC(=O)c1cccnc1)N1CCN=C21` [Example 76, N-[7-methoxy-8-(2-piperidin-1-ylethoxy)-2,3-dihydroimidazo[1,2-c]quinazolin-5-yl]nicotinamide], under 100 nM.

`CCNC(=O)Nc1ccc(C(=O)NC2=Nc3c(ccc(OCCCN4CCOCC4)c3OC)C3=NCCN23)cn1` [Example 77, 6-{[(ethylamino)carbonyl]amino}-N-[7-methoxy-8-(3-morpholin-4-ylpropoxy)-2,3-dihydroimidazo[1,2-c]quinazolin-5-yl]nicotinamide]: the IC50 is under 100 nM. As to `COc1c(OCCCN2CCOCC2)ccc2c1N=C(NC(=O)c1ccc(F)nc1)N1CCN=C21` [Example 78, 6-fluoro-N-[7-methoxy-8-(3-morpholin-4-ylpropoxy)-2,3-dihydroimidazo[1,2-c]quinazolin-5-yl]nicotinamide], the IC50 is 100 to 1000 nM.

As for `COc1c(OCCCN2CCOCC2)ccc2c1N=C(NC(=O)c1coc(N)n1)N1CCN=C21` [Example 79, 2-amino-N-[7-methoxy-8-(3-morpholin-4-ylpropoxy)-2,3-dihydroimidazo[1,2-c]quinazolin-5-yl]-1,3-oxazole-4-carboxamide], the half-inhibitory concentration (IC50) was over 1000 nM. As for `CCNc1nc(C(=O)NC2=Nc3c(ccc(OCCCN4CCOCC4)c3OC)C3=NCCN23)cs1` [Example 80, 2-(ethylamino)-N-[7-methoxy-8-(3-morpholin-4-ylpropoxy)-2,3-dihydroimidazo[1,2-c]quinazolin-5-yl]-1,3-thiazole-4-carboxamide], the IC50 lay in the range of 100 to 1000 nM. For `COc1c(OCCCN2CCOCC2)ccc2c1N=C(NC(=O)c1cnccn1)N1CCN=C21` [Example 81, N-[7-methoxy-8-(3-morpholin-4-ylpropoxy)-2,3-dihydroimidazo[1,2-c]quinazolin-5-yl]pyrazine-2-carboxamide], the half-maximal inhibitory concentration (IC50) was over 1000 nM.
